Results: patent publication US20040023952A1 (priority 2002, published 2004)

Tested on: V1 cortical cells
Format: in vivo, rhesus monkeys (Macaca mulatta)
Settings: for signal-to-noise ratio of cortical cells (response to appropriate stimuli divided by spontaneous discharge rate): FIG. 7; for peak response (maximum visually evoked response) of V1 cortical cells / spontaneous activity of V1 cortical cells: intracortical delivery through microelectrode; for peak response (maximum visually evoked response) of V1 cortical cells: FIG. 5; for spontaneous activity of V1 cortical cells: FIG. 6; for direction selectivity of a representative cortical cell / orientation selectivity of a representative cortical cell / peak response of a representative cortical cell / spontaneous activity of a representative cortical cell: single cell of old monkey, FIG. 10, three minutes after GABA or muscimol application, within five minutes of bicuculline
Text: Extracellular single-neuron recording techniques were used to examine the stimulus selectivities of VI cells in very old rhesus monkeys showing normal optics and retinogeniculate projections. A total of 187 neurons were studied in 4 young rhesus monkeys (Maraca mulatta), and 254 neurons in 4 old rhesus monkeys. Subjects for physiological experiments were abbreviated as OM1-4 (for old monkey 1-4) and YM1-4 (for young monkey 1-4). Retinal data were obtained from one additional young macaque (YM5, Macaca fascicularis). Multiple ophthalmological exams were conducted to ensure optical and retinal health of all subjects prior to testing.
Subjects for this study were four young adult (7-9 year old) and four very old (28-30 year old) female rhesus monkeys (Macaca mullata). […] Thus, the 28-30 year old monkeys were considered old, whereas the 7-9 year old monkeys were at an age considered sexually mature. Retinal control data for FIG. 1 are provided from one additional young female Macaca facsicularis, which was used in previous studies. Onset latency data from YM4 are published. Monkeys were examined ophthalmoscopically, and no apparent optical or retinal problems were detected that would impair visual function. Retinal blood vessels, lens clarity and the maculae all appeared normal. All cells studied had receptive fields between 2 and 5 degrees from the fovea. Monkeys were prepared for electrophysiological recording using standard techniques consistent with Society for Neuroscience and National Institute of Health guidelines.
Subjects were sedated with Ketamine HC1 (Ketalar, Parke-Davis, Morris Plains, N.J.) and then anesthetized with halothane (5%; Halocarton Laboratories, River Edge, N.J.) in a 70:30 mixture of […]. Intravenous and tracheal cannulae were inserted, the animals were placed in a stereotaxic apparatus, and pressure points and incisions were infiltrated with a long-acting anesthetic (2% lidocaine HCI, Copley Pharmaccuticak, Canton, Mass.). A mixture of D-tubocurarine (0.4 mg per kg per hour) and gallamine triethiodide (7 mg per kg per hour) was infused intravenously to induce and maintain paralysis. Animals were ventilated, and anesthesia was maintained with a mixture of nitrous oxide (75%), oxygen (25%) and halothane (0.25-1.0%) as needed.
A small burr hole was made above the striate cortex (V1), and filled with a 4% solution of agar in saline and sealed with wax. The eyes were protected from desiccation with contact lenses; spectacle lenses and artificial pupils were used when needed to focus the eyes on a tangent screen positioned 228 cm from the retina. The locations of the optic discs and foveae were determined repeatedly during the course of each recording session. No visible deterioration in optics occurred during the experimental period (2-5 days).
Extracellular action potentials of isolated cortical cells were recorded with microelectrodes having impedances of 3-5 MΩ. The electrode was advanced using a hydraulic microdrive (David Kopf instruments, Tojunga, Calif.) to precisely position it. The position of the electrode was confirmed by determining the receptive filed positions of the cortical cells at the recording site. A1 V1 cells studied had receptive fields between about 3 and 7 degrees from the fovea.
After placing the microelectrode as in Example 1, visual stimuli were measured using a Tektronix (Beaverton, Oreg.) 608 display driven by a Picasso (Inning Cambridge, Mass.) image synthesizer and a texture/motion generator (Innisfree). The Picasso and texture/motion generator were computer controlled in conjunction with a hardware and software package from Cambridge Electronics Design (Cambridge, England). The center of the display screen was 171 cm from the animal's retina.
The physiological orientation biases and direction biases of cortical cell were studied quantitatively. The orientation of each drifting stimulus presented was orthogonal to its direction of motion. […]

| Structure (SMILES) | signal-to-noise ratio of cortical cells (response to appropriate stimuli divided by spontaneous discharge rate) (old monkeys) | time until drug effects wear off after administration ceases (old monkeys, intracortical delivery) | peak response (maximum visually evoked response) of V1 cortical cells (old monkeys) | spontaneous activity of V1 cortical cells (old monkeys) | direction selectivity of a representative cortical cell | orientation selectivity of a representative cortical cell | peak response of a representative cortical cell | spontaneous activity of a representative cortical cell | number/proportion of orientation and direction selective cells in area V1 (old monkeys, FIGS. 8 and 9) | time until effects are seen after drug administration (old monkeys, intracortical delivery, current 15-50 n amp for 1-3 minutes) |
| --- | --- | --- | --- | --- | --- | --- | --- | --- | --- | --- |
| NCc1cc(=O)[nH]o1 [muscimol] | increased signal-to-noise ratios dramatically | Five minutes after the discontinuation | reduce the peak responses and spontaneous activity of cortical cells to the normal levels seen in young monkeys | reduce the peak responses and spontaneous activity of cortical cells to the normal levels seen in young monkeys | very strong direction selectivity | moderate orientation selectivity | decreased peak response | decreased spontaneous activity | – | – |
| NCCCC(=O)O [GABA, Gamma-aminobutyric acid] | increased signal-to-noise ratios dramatically | – | reduce the peak responses and spontaneous activity of cortical cells to the normal levels seen in young monkeys | reduce the peak responses and spontaneous activity of cortical cells to the normal levels seen in young monkeys | moderate direction selectivity | strong orientation | peak response decreased | decreased as did its spontaneous activity | very close to what is found in normal young monkeys | Three to five minutes |
